In PubChem BioAssay (NCI):
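Cultured in 96-well plates, cells were exposed to test compound for 48 hours across five concentrations. GI50: concentration for 50% inhibition of growth. TGI is the concentration that stops growth completely.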

Legend:
Experiment in all cases: DTP human tumour cell line panel, 48 h
IGROV1 ovarian = tested on: IGROV1 ovarian
MALME-3M melanoma = tested on: MALME-3M melanoma
SW-620 colon = tested on: SW-620 colon
SR leukemia = tested on: SR leukemia
SNB-75 CNS = tested on: SNB-75 CNS
OVCAR-4 ovarian = tested on: OVCAR-4 ovarian
SF-268 CNS = tested on: SF-268 CNS
A498 renal = tested on: A498 renal
OVCAR-5 ovarian = tested on: OVCAR-5 ovarian
SF-539 CNS = tested on: SF-539 CNS

SMILES: Nc1cccc2cc(S(=O)(=O)Nc3ccc(C(=O)O)cc3)ccc12
- TGI (IGROV1 ovarian): > 100 µM
- TGI (MALME-3M melanoma): > 100 µM
- TGI (SW-620 colon): > 100 µM
- TGI (SR leukemia): > 100 µM
- TGI (SNB-75 CNS): > 100 µM
- TGI (OVCAR-4 ovarian): > 100 µM
- TGI (SF-268 CNS): > 100 µM
- TGI (A498 renal): > 100 µM
- TGI (OVCAR-5 ovarian): > 100 µM

SMILES: CC[n+]1c(/C=C/c2ccc(N(CCCl)CCCl)cc2)ccc2cc(Br)ccc21
- TGI (IGROV1 ovarian): 18.4 µM
- GI50 (MALME-3M melanoma): 84 µM
- TGI (SW-620 colon): 14.7 µM
- GI50 (SR leukemia): 132 µM
- TGI (SNB-75 CNS): 0.936 µM
- TGI (OVCAR-4 ovarian): 7.98 µM
- TGI (A498 renal): 6900 µM
- TGI (SF-539 CNS): 4.29 µM
- GI50 (OVCAR-5 ovarian): 202 µM

SMILES: CCN(CC)CCSc1nc2c([N+](=O)[O-])cccc2[nH]1
- TGI (IGROV1 ovarian): > 100 µM
- TGI (SW-620 colon): > 100 µM
- TGI (SNB-75 CNS): > 100 µM
- TGI (OVCAR-4 ovarian): > 100 µM
- TGI (SF-539 CNS): > 100 µM

SMILES: CNC1=C(C)C(=O)C2=C(C1=O)C(COC(N)=O)C1(OC)C3NC3CN21 (centres undefined)
- TGI (IGROV1 ovarian): 91.2 µM
- TGI (MALME-3M melanoma): 3.61 µM
- TGI (SW-620 colon): > 100 µM
- TGI (SR leukemia): > 100 µM
- TGI (SNB-75 CNS): 0.971 µM
- TGI (OVCAR-4 ovarian): 25.7 µM
- TGI (SF-268 CNS): 12.9 µM
- TGI (A498 renal): 2.35 µM
- TGI (SF-539 CNS): 1.92 µM
- TGI (OVCAR-5 ovarian): 50.2 µM

SMILES: N=C1SCCS1
- TGI (IGROV1 ovarian): > 100 µM
- TGI (MALME-3M melanoma): > 100 µM
- TGI (SW-620 colon): > 100 µM
- TGI (SNB-75 CNS): > 100 µM
- TGI (OVCAR-4 ovarian): > 100 µM
- TGI (SF-268 CNS): > 100 µM
- TGI (SF-539 CNS): > 100 µM
- TGI (OVCAR-5 ovarian): > 100 µM

SMILES: O=C(Nc1ccc(-n2cc(-c3ccncc3)c(-c3ccc(O)c(Cl)c3)n2)cc1)c1ccc(Cl)c(Cl)c1
- GI50 (IGROV1 ovarian): > 32.5 µM
- TGI (IGROV1 ovarian): > 32.5 µM
- GI50 (MALME-3M melanoma): 2.47 µM
- TGI (MALME-3M melanoma): > 32.5 µM
- GI50 (SW-620 colon): 2.08 µM
- TGI (SW-620 colon): > 32.5 µM
- GI50 (SR leukemia): 1.19 µM
- TGI (SR leukemia): > 32.5 µM
- GI50 (SNB-75 CNS): 2.64 µM
- TGI (SNB-75 CNS): > 32.5 µM
- GI50 (OVCAR-4 ovarian): 2.71 µM
- TGI (OVCAR-4 ovarian): > 32.5 µM
- GI50 (SF-268 CNS): > 32.5 µM
- TGI (SF-268 CNS): > 32.5 µM
- GI50 (A498 renal): > 32.5 µM
- TGI (A498 renal): > 32.5 µM
- GI50 (SF-539 CNS): 0.656 µM
- TGI (SF-539 CNS): 2.25 µM
- GI50 (OVCAR-5 ovarian): > 32.5 µM
- TGI (OVCAR-5 ovarian): > 32.5 µM

SMILES: NC(N)=NCCCS(=O)(=O)Nc1ccc(Nc2c3ccccc3nc3cc([N+](=O)[O-])ccc23)cc1
- TGI (IGROV1 ovarian): 79.5 µM
- TGI (MALME-3M melanoma): 37.2 µM
- TGI (SW-620 colon): 58 µM
- TGI (SR leukemia): > 100 µM
- TGI (SNB-75 CNS): 45.8 µM
- TGI (OVCAR-4 ovarian): 48.9 µM
- TGI (SF-268 CNS): 35.6 µM
- TGI (A498 renal): 65.8 µM
- TGI (SF-539 CNS): 52.1 µM
- TGI (OVCAR-5 ovarian): > 74.1 µM

SMILES: Cc1ccc(CCCC(=O)O)cc1C
- TGI (IGROV1 ovarian): > 100 µM
- TGI (MALME-3M melanoma): > 100 µM
- TGI (SW-620 colon): > 100 µM
- TGI (SR leukemia): > 100 µM
- TGI (SNB-75 CNS): > 100 µM
- TGI (OVCAR-4 ovarian): > 100 µM
- TGI (SF-268 CNS): > 100 µM
- TGI (OVCAR-5 ovarian): > 100 µM

SMILES: N=C(N)c1ccc(-c2ccc(-c3ccccc3)o2)cc1
- GI50 (IGROV1 ovarian): 2 µM
- TGI (IGROV1 ovarian): 4.5 µM
- GI50 (MALME-3M melanoma): 1.55 µM
- TGI (MALME-3M melanoma): 3.12 µM
- GI50 (SW-620 colon): 1.72 µM
- TGI (SW-620 colon): 3.32 µM
- GI50 (SR leukemia): 1.67 µM
- TGI (SR leukemia): 5.29 µM
- GI50 (SNB-75 CNS): 1.45 µM
- TGI (SNB-75 CNS): 3.43 µM
- GI50 (OVCAR-4 ovarian): 1.96 µM
- TGI (OVCAR-4 ovarian): 4.9 µM
- GI50 (SF-268 CNS): 1.96 µM
- TGI (SF-268 CNS): 4.28 µM
- GI50 (A498 renal): 2.85 µM
- TGI (A498 renal): 9.46 µM
- GI50 (SF-539 CNS): 1.65 µM
- TGI (SF-539 CNS): 3.38 µM
- GI50 (OVCAR-5 ovarian): 2.11 µM
- TGI (OVCAR-5 ovarian): 6.95 µM

SMILES: O=C(c1no[n+]([O-])c1C(=O)c1csc2ccccc12)c1csc2ccccc12
- TGI (IGROV1 ovarian): 5.69 µM
- TGI (MALME-3M melanoma): 13.5 µM
- TGI (SW-620 colon): 5.85 µM
- TGI (SR leukemia): 0.27 µM
- TGI (SNB-75 CNS): 28.5 µM
- TGI (OVCAR-4 ovarian): 7.3 µM
- TGI (SF-268 CNS): 23.2 µM
- TGI (A498 renal): 29.3 µM
- TGI (SF-539 CNS): 8.36 µM
- TGI (OVCAR-5 ovarian): 35.4 µM

SMILES: CC(C)c1cccc(C(C)C)c1NC(=S)Nc1ccccc1
- TGI (IGROV1 ovarian): > 100 µM
- TGI (MALME-3M melanoma): > 100 µM
- TGI (SW-620 colon): > 100 µM
- TGI (SR leukemia): > 100 µM
- TGI (SNB-75 CNS): > 100 µM
- TGI (OVCAR-4 ovarian): > 100 µM
- TGI (SF-268 CNS): > 100 µM
- TGI (A498 renal): > 100 µM
- TGI (SF-539 CNS): > 100 µM
- TGI (OVCAR-5 ovarian): > 100 µM

SMILES: N/C(=N/O)c1cn(C2OC(CO)C(O)C2O)c2ncnc(NO)c12 (centres undefined)
- TGI (IGROV1 ovarian): > 51 µM
- TGI (MALME-3M melanoma): 0.408 µM
- TGI (SW-620 colon): > 46.1 µM
- TGI (SR leukemia): 0.262 µM
- TGI (OVCAR-4 ovarian): 5.98 µM
- TGI (SF-268 CNS): > 100 µM
- TGI (A498 renal): 3.01 µM
- TGI (SF-539 CNS): 5.03 µM
- TGI (OVCAR-5 ovarian): > 57.7 µM

SMILES: CSc1nc(NC2OC(CO)C(O)C(O)C2O)c(N)c(=O)n1C (centres undefined)
- TGI (IGROV1 ovarian): > 100 µM
- TGI (MALME-3M melanoma): > 100 µM
- TGI (SW-620 colon): > 100 µM
- TGI (SNB-75 CNS): > 100 µM
- TGI (OVCAR-4 ovarian): > 100 µM
- TGI (SF-268 CNS): > 100 µM
- TGI (A498 renal): > 100 µM
- TGI (SF-539 CNS): > 100 µM
- TGI (OVCAR-5 ovarian): > 100 µM

SMILES: COc1cccc(/C=N/[N-]C(N)=O)c1[O-].[OH3+].[Zn+2]
- TGI (IGROV1 ovarian): > 100 µM
- TGI (MALME-3M melanoma): > 100 µM
- TGI (SW-620 colon): > 100 µM
- TGI (SR leukemia): > 100 µM
- TGI (SNB-75 CNS): > 100 µM
- TGI (OVCAR-4 ovarian): > 100 µM
- TGI (SF-268 CNS): > 100 µM
- TGI (A498 renal): > 100 µM
- TGI (SF-539 CNS): > 100 µM
- TGI (OVCAR-5 ovarian): > 100 µM

SMILES: NC(=O)OCc1c(O)c2c(c(O)c1COC(N)=O)C(=O)C=CC2=O
- TGI (IGROV1 ovarian): > 100 µM
- TGI (MALME-3M melanoma): > 100 µM
- TGI (SW-620 colon): > 100 µM
- TGI (SR leukemia): > 100 µM
- TGI (SNB-75 CNS): > 100 µM
- TGI (OVCAR-4 ovarian): > 100 µM
- TGI (SF-268 CNS): > 100 µM
- TGI (A498 renal): > 100 µM
- TGI (SF-539 CNS): > 100 µM
- TGI (OVCAR-5 ovarian): > 100 µM

SMILES: CCCCCCCCCCCCCCCc1ccc(C(=O)C[n+]2ccccc2)cc1
- GI50 (MALME-3M melanoma): 1.75 µM
- TGI (MALME-3M melanoma): 4.95 µM
- GI50 (SW-620 colon): 0.394 µM
- TGI (SW-620 colon): 1.54 µM
- GI50 (A498 renal): 1.1 µM
- TGI (A498 renal): 8.33 µM

SMILES: COc1ccc(C2C(Cl)C(=O)N2NC(=O)c2ccc(NC(C)=O)cc2)cc1OC (centres undefined)
- TGI (IGROV1 ovarian): > 100 µM
- TGI (MALME-3M melanoma): > 100 µM
- TGI (SW-620 colon): > 100 µM
- TGI (SR leukemia): > 100 µM
- TGI (SNB-75 CNS): > 100 µM
- TGI (SF-268 CNS): > 100 µM
- TGI (SF-539 CNS): > 100 µM
- TGI (OVCAR-5 ovarian): > 100 µM

SMILES: CC(C)=CCC/C(C)=C/CC/C(C)=C/C(O)c1ccccc1 (centres undefined)
- TGI (IGROV1 ovarian): 37.2 µM
- TGI (MALME-3M melanoma): 34.5 µM
- TGI (SW-620 colon): 38.8 µM
- TGI (SR leukemia): 44.1 µM
- TGI (OVCAR-4 ovarian): > 10 µM
- TGI (SF-268 CNS): 35.3 µM
- TGI (A498 renal): 34.2 µM
- TGI (OVCAR-5 ovarian): 32.5 µM
